The test system of this test is KB. The test can be described thus: Cytotoxicity against human KB cells. As to conditions: read-out: ED50.

Values after ≈ are worked out from the molar mass of the structure shown.

In the case of `CO[C@H]1[C@H](O[C@H]2CC[C@]3(C=O)[C@H]4CC[C@]5(C)[C@@H](C6=CC(=O)OC6)CC[C@]5(O)[C@@H]4CC[C@]3(O)C2)O[C@H](C)[C@@H](O)[C@@H]1OC` [MANSONIN], the EC50 turned out to be 0.042 µg/mL (≈ 0.0726 µM).

For `CO[C@H]1[C@H](O[C@H]2CC[C@]3(C=O)[C@H]4CC[C@]5(C)[C@@H](C6=CC(=O)OC6)CC[C@]5(O)[C@@H]4CC[C@]3(O)C2)O[C@H](C)[C@H](O)[C@@H]1OC` [STREBLOSIDE], the EC50 was determined as 0.035 µg/mL (≈ 0.0605 µM).

The values are drawn from ChEMBL document CHEMBL1151665, “Plant anticancer agents, XLI. Cardiac glycosides from Streblus asper” (1985).
